According to patent US20250171400A1, “AZA-HETEROCYCLYL CARBOXAMIDE AND RELATED COMPOUNDS AND THEIR USE IN TREATING MEDICAL CONDITIONS” (X-BIOTIX THERAPEUTICS, INC., priority 2021, published 2025):
Values after ≈ are worked out from the molar mass of the structure shown. Read-outs that look alike come from different tables or passages of the source.

What was measured:
[1] = test system: E. coli BW25113 isogenic mutant deficient in acrA mediated efflux; experiment: broth microdilution minimum inhibition concentration assay; type: cell-based; details: Escherichia coli, BW25113, read-out: E. coli KO MIC
Description: (§1) Exemplary compounds from the above Examples were tested to determine their minimum inhibitory concentration (MIC) for exemplary strains of Eschericia and Pseudomonas bacteria using broth microdilution methods. Assay procedures and results are described below.
(§2) Broth microdilution assays were conducted according to Clinical and Laboratory Standards Institute guidelines (CLSI, M07-A11: Clinical and Laboratory Standards Institute. Methods for Dilution Antimicrobial Susceptibility Tests for Bacteria that Grow Aerobically; Approved Standard—11th Edition. Wayne, PA: CLSI, 2018.). Briefly, a 0.5 McFarland standard suspension was made from bacterial isolates on non-selective, solid media. The inocula were adjusted to give a bacterial concentration of 1×10^6 CFU/mL. Serial doubling-dilutions of each compound were prepared in cation-adjusted Mueller-Hinton broth (Sigma-Aldrich) in 96-well microdilution plates. A 50 μL aliquot of the inoculum was added to each microdilution plate and, within 15 minutes, incubated at 37° C. in air for 16-20 h. […] The test was controlled by the determination of piperacillin MIC against both E. coli ATCC 25922 and P. aeruginosa ATCC 27853 and ensuring accordance with the ranges published in CLSI supplementary document M100 (CLSI, M100Ed29: Clinical and Laboratory Standards Institute. Performance Standards for Antimicrobial Susceptibility Testing, 29th Edition. Wayne, PA: CLSI, 2018.).
(§3) Multiple enterobacteriaceae strains were tested, including E. coli ATCC 25922 and K. pneumoniae ATCC 43816. WT E. coli BW25113 was tested with an isogenic mutant deficient in acrA mediated efflux by clean deletion. WT P. aeruginosa PAO1 was tested with an isogenic mutant deficient in MexA mediated efflux by clean deletion.
(§4) Experimental results are provided in Table 4, which provides MIC values for wild-type E. coli BW25113 (“E. coli WT MIC”), an isogenic mutant deficient in acrA mediated efflux by clean deletion (“E. coli KO MIC”), wild-type P. aeruginosa PAO1 (“P. aeruginosa WT MIC”), and an isogenic mutant deficient in MexA mediated efflux by clean deletion (“[…]”).

[2] = test system: P. aeruginosa PAO1 isogenic mutant deficient in MexA mediated efflux; experiment: as above; type: cell-based; details: Pseudomonas aeruginosa, PAO1, read-out: P. aeruginosa KO MIC
Description: as §1, §2, §3, §4

[3] = test system: wild-type E. coli BW25113; experiment: as above; type: cell-based; details: Escherichia coli; wild-type E. coli BW25113, 37° C. 16-20 h; read-out: E. coli WT MIC
Description: as §1, §2, §3, §4

[4] = test system: wild-type P. aeruginosa PAO1; experiment: as above; type: cell-based; details: Pseudomonas aeruginosa
Description: as §1, §2, §3, §4

P. aeruginosa LpxC = P. aeruginosa LpxC (Pseudomonas aeruginosa (strain ATCC 15692 / DSM 22644 / CIP 104116 / JCM 14847 / LMG 12228 / 1C / PRS 101 / PAO1), UniProt P47205); experiment: biochemical; type: biochemical; details: 5 nM P. aeruginosa LpxC, 2.5 μM substrate, 1 hour at room temperature
Description: (§5) Exemplary compounds from the above Examples were tested for ability to inhibit LpxC activity using an in vitro substrate deacetylation assay with ADDA™ analysis. Assay procedures and results are described below.
(§6) For ADDA™ analysis, an aliquot of assay sample was withdrawn from each well of the 384-well plate and applied to a Hypercarb cartridge (Optimize Technologies, USA) under conditions designed to retain analytes of interest. Analytes were eluted using 1:1:2 acetone:acetonitrile:water containing 5 mM ammonium acetate then analysed by triple-quadrupole mass spectrometry. Mass spectrometry was carried out using electrospray ionization in negative ion mode.
For IC50 determinations, peak areas of the substrate and product were compared to compute the proportion of substrate reacted by the LpxC enzyme at each compound concentration.

E. coli LpxC = E. coli LpxC (Escherichia coli (strain K12), UniProt P0A725); experiment: in vitro substrate deacetylation assay for inhibition of LpxC (ADDA analysis); type: biochemical; details: 5 nM E. coli LpxC, 2.5 μM substrate, 1 hour at room temperature
E. coli LpxC, sequence (P0A725 whole entry): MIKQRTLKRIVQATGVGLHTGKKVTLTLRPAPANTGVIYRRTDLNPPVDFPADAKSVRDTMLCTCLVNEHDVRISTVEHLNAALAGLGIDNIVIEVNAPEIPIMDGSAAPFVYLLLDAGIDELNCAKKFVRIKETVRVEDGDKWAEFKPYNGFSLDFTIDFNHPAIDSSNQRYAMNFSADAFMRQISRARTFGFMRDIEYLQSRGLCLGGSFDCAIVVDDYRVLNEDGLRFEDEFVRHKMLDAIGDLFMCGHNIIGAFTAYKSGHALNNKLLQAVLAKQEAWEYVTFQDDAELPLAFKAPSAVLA
Description: as §5
Dilutions of test compound were pre-incubated with 5 nM P. aeruginosa or E. coli LpxC for 10 minutes at room temperature in 50 mM NaH2PO4, 500 mM sucrose, 0.2 mg/mL BSA, pH 7.2 and <1% DMSO. Reactions were initiated by the addition of 2× substrate (UDP-3-O—(R-3-hydroxydecanoyl)-N-acetylglucosamine, Carbosynth Ltd, UK, for P. aeruginosa LpxC and UDP-3-O—(R-3-hydroxymyristoyl)-N-acetylglucosamine, BOC Sciences, USA, for E. coli LpxC), in 50 mM NaH2PO4, 0.5 mg/mL BSA, pH 7.2, to a final concentration of 2.5 μM. Reactions proceeded for 1 hour at room temperature prior to quenching with and equal volume of 2% acetic acid.
as §6, with “mode. Daughter ion peaks representing detected substrate (P. aeruginosa: parent Q1 mass=775.8 amu, daughter Q3 mass=384.7 amu E. coli: parent Q1 mass=833.0 amu, daughter Q3 mass=385.0 amu, collision energy=analyte specific, dwell time=50 ms) were identified using a multiple-reaction monitoring protocol.” for “mode.”
Total activity (0% inhibition) was obtained from reactions containing no compound, and 100% inhibition is defined as reactions in the presence of 1 μM CHIR-090 (N-[(1S,2R)-2-hydroxy-1-[(hydroxyamino)carbonyl]propyl]-4-[2-[4-(4-morpholinylmethyl)phenyl]ethynyl]-benzamide). For IC50 determinations, peak areas of the substrate and product were compared to compute the proportion of substrate reacted by the LpxC enzyme at each compound concentration. The fractional activity was converted to percentage inhibition and plotted against compound concentration in ActivityBase™ and fit using a four-parameter logistic using non-linear regression to yield the IC50 value.

[5] = wild-type P. aeruginosa PAO1, 37° C. 16-20 h, read-out: P. aeruginosa WT MIC
[6] = PAO1, read-out: P. aeruginosa WT MIC

Compound	MIC [1] [µM]	MIC [2] [µM]	MIC [3] [µM]	MIC [4, 5] [µM]	IC50 (P. aeruginosa LpxC) [nM]	IC50 (E. coli LpxC) [nM]	MIC [4, 6] [µM]
O=C(NC[C@H]1C[C@@H](NC(=O)[C@@H]2C[C@H](F)CN2)CN1C(=O)C1CC1)c1ccc(C#Cc2ccc(CN3CCOCC3)cc2)cc1 [Example 9AS]	< 20	< 20	< 20	> 100	< 50	< 500	–
CC(C)C(=O)N1C[C@H](NC(=O)[C@@H]2C[C@H](F)CN2)C[C@@H]1C(=O)NCc1ccc(C#CC#Cc2ccccc2)cc1 [Example 9AT]	< 20	< 20	> 100	> 100	< 50	500 to 2500	–
COCCN(C(=O)[C@@H]1C[C@H](F)CN1)[C@@H]1C[C@H](C(=O)NCc2ccc(C#Cc3ccc(CN4CCOCC4)cc3)cc2)N(C(=O)C2CC2)C1 [Example 9AV, (2R,4R)-1-(Cyclopropanecarbonyl)-4-((2S,4S)-4-fluoro-N-(2-methoxyethyl)pyrrolidine-2-carboxamido)-N-(4-((4-(morpholinomethyl)phenyl)ethynyl)benzyl)pyrrolidine-2-carboxamide]	> 100	> 100	> 100	> 100	> 1000	> 10000	–
O=C(N[C@@H]1C[C@H](C(=O)NCc2ccc(C#Cc3ccc(CN4CCOCC4)cc3)cc2)N(C(=O)OC2CC2)C1)[C@@H]1C[C@H](F)CN1 [Example 9AW]	< 20	< 20	> 100	> 100	< 50	< 500	–
O=C(NC[C@H]1C[C@@H](NC(=O)[C@@H]2C[C@H](F)CN2)CN1C(=O)C1CC1)c1ccc(C#Cc2ccccc2)cc1 [Example 9AX]	< 20	< 20	< 20	> 100	< 50	< 500	–
CC(C)C(=O)N1C[C@H](NC(=O)[C@@H]2C[C@H](F)CN2)C[C@@H]1C(=O)NCc1ccc(C#CC2CC2)cc1 [Example 9BG]	> 100	> 100	> 100	–	100 to 1000	> 10000	> 100
CC(C)C(=O)N1C[C@H](NC(=O)[C@@H]2C[C@H](F)CN2)C[C@@H]1C(=O)NCc1ccc(C#CC#CC2CC2)cc1 [Example 9B]	20 to 100 (≈ 9.85 to 49.3 µg/mL)	< 20	> 100	–	< 50	500 to 2500	> 100
CC(C)C(=O)N1C[C@H](NC(=O)[C@@H]2CC(F)(F)CN2)C[C@@H]1C(=O)NCc1ccc(C#Cc2ccccc2)cc1 [Example 9C]	20 to 100 (≈ 10.5 to 52.3 µg/mL)	> 100	> 100	–	100 to 1000	500 to 2500	> 100
CC(C)C(=O)N1C[C@H](NC(=O)[C@@H]2C[C@H](F)CN2)C[C@@H]1C(=O)NCc1ccc(C#Cc2ccc(CN3CCOCC3)cc2)cc1 [Example 9D]	< 20	< 20	20 to 100 (≈ 12.1 to 60.4 µg/mL)	–	< 50	< 500	> 100
